# Assay results published in PubChem BioAssay (NCI).
#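 Cells were grown in 96-well plates and exposed to each compound for 48 hours at five concentrations; endpoints were interpolated linearly between bracketing concentrations, or set to the highest concentration if not reached. TGI marks complete inhibition of growth.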
# How the values were obtained:
# Assay in all cases: NCI anticancer screen, dose series, 48 h
# [1] = system: SF-268 CNS
# [2] = system: IGROV1 ovarian
# [3] = system: NCI-H226 lung
# [4] = system: K-562 leukemia
# [5] = system: U251 CNS
# [6] = system: CCRF-CEM leukemia
# [7] = system: UACC-257 melanoma
# [8] = system: EKVX NSCLC
# [9] = system: HT29 colon
# [10] = system: SK-MEL-5 melanoma
# [11] = system: DU-145 prostate
# [12] = system: NCI/ADR-RES ovarian
# [13] = system: SNB-75 CNS
# [14] = system: 786-0 renal
# [15] = system: NCI-H522 lung
# [16] = system: UO-31 renal
# [17] = system: MDA-N
# [18] = system: HCT-116 colon
# [19] = system: LOX IMVI melanoma
# [20] = system: T-47D breast
# [21] = system: A549 NSCLC
# [22] = system: HOP-62 NSCLC
# [23] = system: HOP-92 NSCLC
# [24] = system: SF-295 CNS
# [25] = system: HCC-2998 colon
# [26] = system: RXF 393 renal
# [27] = system: BT-549 breast
# [28] = system: HS 578T breast
# [29] = system: OVCAR-8 ovarian
# [30] = system: MALME-3M melanoma
# [31] = system: CAKI-1 renal
# [32] = system: ACHN renal
# [33] = system: UACC-62 melanoma
# [34] = system: KM12 colon
# [35] = system: SR leukemia
# [36] = system: PC-3 prostate
# [37] = system: SNB-19 CNS
# [38] = system: A498 renal
# [39] = system: TK-10 renal
# [40] = system: NCI-H460 lung
# [41] = system: M14 melanoma
# [42] = system: OVCAR-4 ovarian
# [43] = system: MDA-MB-435
# [44] = system: OVCAR-5 ovarian
# [45] = system: NCI-H23 lung
# [46] = system: SW-620 colon
# [47] = system: SK-MEL-28 melanoma
# [48] = system: MOLT-4 leukemia
# [49] = system: OVCAR-3 ovarian
# [50] = system: SN12C renal
# [51] = system: MDA-MB-231 breast
# [52] = system: HCT-15 colon
smiles,measurement,setting,value
O=C(O)C(Cc1cc(I)c(O)c(I)c1)C1CCCCC1 (configuration not stated),TGI,[1],> 100 µM
same,TGI,[2],> 100 µM
same,TGI,[3],> 100 µM
same,TGI,[4],> 100 µM
same,TGI,[5],54.6 µM
same,TGI,[6],> 100 µM
same,TGI,[7],> 100 µM
same,TGI,[8],> 100 µM
same,TGI,[9],98.3 µM
same,TGI,[10],53.5 µM
same,TGI,[11],> 100 µM
same,TGI,[12],> 100 µM
same,TGI,[13],> 100 µM
same,TGI,[14],> 100 µM
same,TGI,[15],> 100 µM
same,TGI,[16],> 100 µM
same,TGI,[17],> 100 µM
same,TGI,[18],88.7 µM
same,TGI,[19],> 100 µM
same,TGI,[20],> 100 µM
same,TGI,[21],> 100 µM
same,TGI,[22],> 100 µM
same,TGI,[23],> 100 µM
same,TGI,[24],> 100 µM
same,TGI,[25],76.9 µM
same,TGI,[26],> 100 µM
same,TGI,[27],> 100 µM
same,TGI,[28],> 100 µM
same,TGI,[29],> 100 µM
same,TGI,[30],> 100 µM
same,TGI,[31],> 100 µM
same,TGI,[32],> 100 µM
same,TGI,[33],> 100 µM
same,TGI,[34],> 100 µM
same,TGI,[35],> 100 µM
same,TGI,[36],41.5 µM
same,TGI,[37],> 100 µM
same,TGI,[38],63.7 µM
same,TGI,[39],88.7 µM
same,TGI,[40],46 µM
same,TGI,[41],> 100 µM
same,TGI,[42],> 100 µM
same,TGI,[43],> 100 µM
same,TGI,[44],> 100 µM
same,TGI,[45],65.5 µM
same,TGI,[46],> 100 µM
same,TGI,[47],> 100 µM
same,TGI,[48],76.2 µM
same,TGI,[49],38.5 µM
same,TGI,[50],> 100 µM
same,TGI,[51],72.5 µM
same,TGI,[52],> 100 µM
